Series [1] addresses T1, α1A Human Adrenergic Receptor (Homo sapiens, UniProt P25100).
T1 construct: The entire coding region of α1A (1719 bp); expressed in transfected cells
T1 sequence (P25100 1-572): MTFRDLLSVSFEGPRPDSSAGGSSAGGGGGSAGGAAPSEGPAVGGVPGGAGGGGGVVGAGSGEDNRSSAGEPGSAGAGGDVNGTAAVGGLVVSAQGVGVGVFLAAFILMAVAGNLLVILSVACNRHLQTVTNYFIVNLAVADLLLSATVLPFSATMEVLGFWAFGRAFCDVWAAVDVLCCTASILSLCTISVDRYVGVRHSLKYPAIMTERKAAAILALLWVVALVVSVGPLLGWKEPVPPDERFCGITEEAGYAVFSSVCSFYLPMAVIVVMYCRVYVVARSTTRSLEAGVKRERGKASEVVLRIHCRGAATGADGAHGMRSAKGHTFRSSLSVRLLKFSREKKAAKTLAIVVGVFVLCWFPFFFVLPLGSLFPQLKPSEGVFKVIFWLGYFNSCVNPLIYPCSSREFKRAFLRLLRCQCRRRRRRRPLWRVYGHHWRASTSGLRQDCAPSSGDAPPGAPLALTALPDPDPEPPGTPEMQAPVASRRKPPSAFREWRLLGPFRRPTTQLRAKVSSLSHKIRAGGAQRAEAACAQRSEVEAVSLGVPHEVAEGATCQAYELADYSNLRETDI
Nature of the series: Radioligand binding, [3H]prazosin, cloned human α1A adrenergic receptor. The method in brief: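 Membranes from LM(tk−) cells transfected with cloned human α1A receptor, prepared in 50 mM Tris-HCl, 1 mM MgCl2, 0.1% ascorbic acid pH 7.5, were incubated with 0.5 nM [3H]prazosin at 37° C for 20 min. Nonspecific binding was defined with 10 μM phentolamine; bound ligand was separated by GF/B filtration.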

Series [2] deals with T2, α1B Human Adrenergic Receptor (Homo sapiens, UniProt P35368).
T2 construct: The entire coding region of α1B (1563 bp); expressed in transfected cells
T2 sequence (P35368 1-520): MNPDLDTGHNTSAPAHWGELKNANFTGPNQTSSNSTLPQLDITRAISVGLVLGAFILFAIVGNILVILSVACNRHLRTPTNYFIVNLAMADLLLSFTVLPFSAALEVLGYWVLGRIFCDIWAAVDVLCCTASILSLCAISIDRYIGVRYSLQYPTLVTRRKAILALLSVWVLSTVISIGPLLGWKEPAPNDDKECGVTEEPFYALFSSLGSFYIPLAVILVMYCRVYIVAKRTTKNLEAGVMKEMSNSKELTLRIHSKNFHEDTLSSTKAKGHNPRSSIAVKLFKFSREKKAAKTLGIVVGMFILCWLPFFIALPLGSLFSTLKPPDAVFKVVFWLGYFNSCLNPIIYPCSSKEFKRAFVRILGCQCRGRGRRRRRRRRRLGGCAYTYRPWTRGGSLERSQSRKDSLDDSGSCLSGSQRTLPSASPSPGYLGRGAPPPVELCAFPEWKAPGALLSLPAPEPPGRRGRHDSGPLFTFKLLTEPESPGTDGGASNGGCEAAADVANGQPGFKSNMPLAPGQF
In words: Radioligand binding, [3H]prazosin, cloned human α1B adrenergic receptor. The procedure, abridged:
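Membranes from stably transfected LM(tk−) cells, resuspended in 50 mM Tris-HCl, 1 mM MgCl2, 0.1% ascorbic acid, pH 7.5, were incubated with 0.5 nM [3H]prazosin for 20 min at 37° C. Nonspecific binding defined with 10 μM phentolamine; bound ligand separated by GF/B filtration.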

For series [3], the target named is T3, α1C Human Adrenergic Receptor (Homo sapiens, UniProt P35348).
T3 construct: The entire coding region of α1C (1401 bp); expressed in transfected cells
T3 sequence (P35348 1-466): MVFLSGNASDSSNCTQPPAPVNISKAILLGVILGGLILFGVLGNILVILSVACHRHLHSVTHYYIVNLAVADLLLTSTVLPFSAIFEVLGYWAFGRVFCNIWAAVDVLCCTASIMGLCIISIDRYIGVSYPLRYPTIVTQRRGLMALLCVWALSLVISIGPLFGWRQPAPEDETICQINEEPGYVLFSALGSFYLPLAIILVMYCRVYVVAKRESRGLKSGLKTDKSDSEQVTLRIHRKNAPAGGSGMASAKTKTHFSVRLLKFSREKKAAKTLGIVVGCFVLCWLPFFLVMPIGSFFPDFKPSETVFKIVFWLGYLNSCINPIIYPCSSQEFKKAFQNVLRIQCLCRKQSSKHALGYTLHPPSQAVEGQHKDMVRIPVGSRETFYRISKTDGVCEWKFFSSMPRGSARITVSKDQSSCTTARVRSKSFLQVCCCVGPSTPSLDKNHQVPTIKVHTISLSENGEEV
Nature of the series: Radioligand binding, [3H]prazosin, cloned human α1C adrenergic receptor. The method in brief:
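Membranes from LM(tk−) cells stably expressing the cloned human α1C receptor were incubated with 0.5 nM [3H]prazosin at 37° C. for 20 min in 50 mM Tris-HCl, 1 mM MgCl2, 0.1% ascorbic acid, pH 7.5. Nonspecific binding was defined with 10 μM phentolamine, and bound ligand was separated by GF/B filtration.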

A further series addresses T4, L-type calcium channel (Rattus norvegicus, UniProt P22002).
T4 construct: membrane fragments of rat cardiac muscle; from tissue; host or cells: rat cardiac muscle membranes
Nature of the series: Competition binding of [3H]nitrendipine to membrane fragments of rat cardiac muscle. The method, then:
The protocols for these experiments are given below.
Determination of the Activity of al Antagonists at Calcium Channels
Briefly, the tissue was minced and homogenized in 50 mM Tris-HCl (pH 7.4) containing 0.1 mM phenylmethylsulfonyl fluoride. The homogenates were centrifuged at 1000 g for 15 minutes, the resulting supernatant was centrifuged at 45,000 g for 15 minutes. The 45,000 g pellet was suspended in buffer and centrifuged a second time. Aliquots of membrane protein were incubated for 30 minutes at 37° C. in the presence of [3H]nitrendipine (1 nM), and nonspecific binding was determined in the presence of 10 μM nifedipine. The bound radioligand was separated by filtration through GF/B filters using a cell harvester.

[4] abbreviates: [3H]prazosin, cloned human receptor in LM(tk-) cell membranes, SEM and n in lines below, read-out: pKi alpha-1 1a (converted).
Setting [5] is: cloned human receptor in LM(tk-) cell membranes, SEM and n in lines below, read-out: pKi alpha-1 1b (converted).
[6] abbreviates: cloned human receptor in LM(tk-) cell membranes, SEM and n in lines below, read-out: pKi alpha-1 1c (converted).
Where [7] appears, read: [3H]nitrendipine, rat cardiac muscle membranes, SEM and n in lines below, read-out: pKi Ca (converted).
[8] abbreviates: [3H]prazosin, cloned human receptor, LM(tk-) cell membranes, mean, read-out: PKi alpha-1 1a (converted).
[9] abbreviates: cloned human receptor, LM(tk-) cell membranes, mean, read-out: PKi alpha-1 1b (converted).
Where [10] appears, read: cloned human receptor, LM(tk-) cell membranes, mean, read-out: PKi alpha-1 1c (converted).
Where [11] appears, read: [3H]nitrendipine, rat cardiac muscle membranes, mean, read-out: PKi Ca (converted).

Molecules are shown by their SMILES. Like-named read-outs stand apart in the source and are kept apart here.

T4 sequence (P22002 whole entry, other chains not shown, the tested form may be a part): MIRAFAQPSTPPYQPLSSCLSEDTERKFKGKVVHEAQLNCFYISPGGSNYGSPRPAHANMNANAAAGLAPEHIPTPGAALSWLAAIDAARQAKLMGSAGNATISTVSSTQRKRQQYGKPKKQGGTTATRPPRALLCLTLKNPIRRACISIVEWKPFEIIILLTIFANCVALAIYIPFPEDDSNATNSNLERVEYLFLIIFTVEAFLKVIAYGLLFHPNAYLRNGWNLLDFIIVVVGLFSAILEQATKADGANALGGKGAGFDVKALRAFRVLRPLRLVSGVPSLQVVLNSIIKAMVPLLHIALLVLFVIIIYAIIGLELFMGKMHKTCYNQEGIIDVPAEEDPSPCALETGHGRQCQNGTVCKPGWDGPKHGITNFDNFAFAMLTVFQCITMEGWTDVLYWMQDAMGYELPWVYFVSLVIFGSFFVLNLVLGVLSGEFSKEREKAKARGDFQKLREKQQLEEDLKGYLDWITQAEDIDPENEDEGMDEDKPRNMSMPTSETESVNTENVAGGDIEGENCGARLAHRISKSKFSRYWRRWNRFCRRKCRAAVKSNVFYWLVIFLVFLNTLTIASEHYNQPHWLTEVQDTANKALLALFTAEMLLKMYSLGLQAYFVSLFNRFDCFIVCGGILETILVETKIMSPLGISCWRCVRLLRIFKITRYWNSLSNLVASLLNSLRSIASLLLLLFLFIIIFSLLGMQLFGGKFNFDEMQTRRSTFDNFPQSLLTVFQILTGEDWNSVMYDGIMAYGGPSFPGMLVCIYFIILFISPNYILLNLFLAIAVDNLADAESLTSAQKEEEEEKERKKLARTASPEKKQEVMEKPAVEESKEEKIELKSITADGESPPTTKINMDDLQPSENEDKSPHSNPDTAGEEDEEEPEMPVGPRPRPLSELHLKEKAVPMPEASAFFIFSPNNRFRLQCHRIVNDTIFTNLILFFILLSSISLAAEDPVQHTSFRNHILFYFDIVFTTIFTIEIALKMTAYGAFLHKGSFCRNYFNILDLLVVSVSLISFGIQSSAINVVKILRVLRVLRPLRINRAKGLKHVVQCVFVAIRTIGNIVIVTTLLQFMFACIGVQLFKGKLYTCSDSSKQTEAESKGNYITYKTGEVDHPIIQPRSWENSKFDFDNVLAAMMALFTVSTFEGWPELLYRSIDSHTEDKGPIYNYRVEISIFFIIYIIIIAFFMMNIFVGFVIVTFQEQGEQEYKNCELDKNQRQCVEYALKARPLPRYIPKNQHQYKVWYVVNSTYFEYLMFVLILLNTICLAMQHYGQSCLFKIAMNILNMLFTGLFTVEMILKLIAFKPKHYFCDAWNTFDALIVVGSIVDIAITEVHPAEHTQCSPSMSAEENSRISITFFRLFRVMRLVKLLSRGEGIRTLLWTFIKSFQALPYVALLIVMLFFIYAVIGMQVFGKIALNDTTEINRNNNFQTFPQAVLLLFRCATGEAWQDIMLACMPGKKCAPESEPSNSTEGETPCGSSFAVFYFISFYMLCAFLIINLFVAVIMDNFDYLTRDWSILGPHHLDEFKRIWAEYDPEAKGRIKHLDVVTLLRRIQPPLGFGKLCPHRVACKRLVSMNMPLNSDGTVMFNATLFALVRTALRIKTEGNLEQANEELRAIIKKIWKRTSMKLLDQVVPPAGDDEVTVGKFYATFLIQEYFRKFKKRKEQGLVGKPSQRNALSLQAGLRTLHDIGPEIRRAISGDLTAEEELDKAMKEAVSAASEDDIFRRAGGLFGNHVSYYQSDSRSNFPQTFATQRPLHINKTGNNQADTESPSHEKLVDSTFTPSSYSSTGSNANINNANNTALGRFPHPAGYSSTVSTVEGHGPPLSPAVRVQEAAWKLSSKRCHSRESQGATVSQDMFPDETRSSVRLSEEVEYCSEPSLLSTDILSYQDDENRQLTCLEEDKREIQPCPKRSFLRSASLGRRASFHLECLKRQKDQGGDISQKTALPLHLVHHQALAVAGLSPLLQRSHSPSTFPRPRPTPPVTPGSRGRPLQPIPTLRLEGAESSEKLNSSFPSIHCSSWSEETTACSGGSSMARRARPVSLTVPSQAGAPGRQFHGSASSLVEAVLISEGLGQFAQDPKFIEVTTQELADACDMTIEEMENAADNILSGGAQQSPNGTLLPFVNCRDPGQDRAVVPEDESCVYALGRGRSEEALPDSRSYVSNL
T4 sequence (P54290 25-944 partner limits assumed, other chains not shown): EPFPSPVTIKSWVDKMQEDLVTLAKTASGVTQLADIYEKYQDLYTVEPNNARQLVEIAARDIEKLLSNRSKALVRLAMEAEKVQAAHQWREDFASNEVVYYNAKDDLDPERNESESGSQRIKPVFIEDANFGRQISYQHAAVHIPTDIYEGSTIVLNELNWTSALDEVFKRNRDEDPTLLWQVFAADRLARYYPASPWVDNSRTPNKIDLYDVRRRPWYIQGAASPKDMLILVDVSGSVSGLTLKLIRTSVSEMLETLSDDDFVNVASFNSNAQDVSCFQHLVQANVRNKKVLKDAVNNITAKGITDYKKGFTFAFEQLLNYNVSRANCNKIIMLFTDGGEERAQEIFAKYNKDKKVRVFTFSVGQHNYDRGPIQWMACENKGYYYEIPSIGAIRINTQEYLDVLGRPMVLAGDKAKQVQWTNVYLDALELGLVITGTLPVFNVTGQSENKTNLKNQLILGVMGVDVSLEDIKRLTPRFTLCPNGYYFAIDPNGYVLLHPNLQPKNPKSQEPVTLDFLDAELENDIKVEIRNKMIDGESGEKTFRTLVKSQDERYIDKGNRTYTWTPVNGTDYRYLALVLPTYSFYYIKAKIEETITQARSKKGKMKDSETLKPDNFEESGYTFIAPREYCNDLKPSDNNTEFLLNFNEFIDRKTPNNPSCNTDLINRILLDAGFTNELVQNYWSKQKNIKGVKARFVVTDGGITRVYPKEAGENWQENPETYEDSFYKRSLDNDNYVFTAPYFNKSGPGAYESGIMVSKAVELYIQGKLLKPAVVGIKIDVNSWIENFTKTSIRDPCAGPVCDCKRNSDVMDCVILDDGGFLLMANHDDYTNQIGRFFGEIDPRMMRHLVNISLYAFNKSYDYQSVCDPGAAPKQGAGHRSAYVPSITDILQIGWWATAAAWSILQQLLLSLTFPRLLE
T4 sequence (P54290 945-1091 partner limits assumed, other chains not shown): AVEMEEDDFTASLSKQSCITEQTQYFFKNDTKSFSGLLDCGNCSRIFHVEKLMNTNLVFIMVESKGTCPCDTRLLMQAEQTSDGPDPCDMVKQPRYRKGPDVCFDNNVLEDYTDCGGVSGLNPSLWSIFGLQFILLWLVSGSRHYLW

As usually defined, the melting point is the temperature, or range, at which the solid turns liquid. In turn, `CCNC(=O)C1=C(CC)NC(CC)=C(C(=O)NCCCN2CCC(c3ccccc3)(c3ccccc3)CC2)C1c1ccc([N+](=O)[O-])cc1` (stereo not drawn) [Example 129, 2,6-Diethyl-5-(N-ethyl)carboxamido-1,4-dihydro-4-(4-nitrophenyl)-3-{N-[3-(4,4-diphenylpiperidin-1-yl)propyl]}carboxamidopyridine] came in with a melting point of 101 to 104 °C. In addition, in series [1] (pKi alpha-1 1a, [3H]prazosin, cloned human α1A receptor, LM(tk−) cell membranes), the Ki is 676 nM. Further, in series [2] (pKi alpha-1 1b, cloned human α1B receptor, LM(tk−) cell membranes), the Ki is 513 nM. Moreover, the Ki in series [3] (pKi alpha-1 1c, cloned human α1C receptor, LM(tk−) cell membranes) was 3.72 nM. The Ki at L-type calcium channel ([3H]nitrendipine, rat cardiac muscle membrane fragments, L-type calcium channel, read-out: pKi Ca (converted)) was 100000 nM.

As to `COC(=O)C1=C(C)NC(C)=C(C(=O)NCCCN2CCC(c3ccccc3)CC2)C1c1ccncc1` (stereo not drawn) [Example 32, 1,4-Dihydro-3-methoxycarbonyl-2,6-dimethyl-5-(N-(3-(4-phenylpiperidin-1-yl)propyl)carboxamido)-4-(4-pyridyl)pyridine], the melting point is 79 to 80 °C. Besides, the Ki in series [1] (setting [4]) was 741 nM. Moreover, in series [2] (setting [5]), the Ki was 302 nM. The Ki in series [3] (setting [6]) is 13.2 nM. Moreover, the Ki at L-type calcium channel (setting [7]) was 1580 nM.

`CCCC1=C(C(=O)NCC)C(c2ccc([N+](=O)[O-])cc2)C(C(=O)NCCCN2CCC(c3ccccc3)(c3ccccc3)CC2)=C(CCC)N1` (stereo not drawn) [Example 159, 5-(N-Ethyl)carboxamido-1,4-dihydro-4-(4-nitrophenyl)-3-{N-[3-(4,4-diphenylpiperidin-1-yl)propyl]}carboxamido-2,6-dipropylpyridine] gave a melting point of 123 to 128 °C. In addition, the Ki in series [1] (pKi alpha-1 1a) was 389 nM. In series [2] (cloned human α1B receptor, LM(tk−) cell membranes, read-out: pKi alpha-1 1b (converted)), the Ki is 178 nM. In addition, the Ki in series [3] (cloned human α1C receptor, LM(tk−) cell membranes, read-out: pKi alpha-1 1c (converted)) is 5.01 nM. In addition, the Ki on L-type calcium channel (pKi Ca) was 1660 nM.

Take `CCC1=C(C(=O)O)C(c2ccc([N+](=O)[O-])cc2)C(C(=O)NCCCN2CCC(c3ccccc3)CC2)=C(COC)N1` (stereo not drawn) [Example 223, 6-Ethyl-1,4-dihydro-2-methyloxymethyl-4-(4-nitro)phenyl-3-(N-(3-(4-phenylpiperidin-1-yl)propyl))carboxamidopyridine-5-carboxylic Acid]: the Ki in series [1] (setting [8]) is 891 nM; in series [2] (setting [9]) it was 174 nM; in series [3] (setting [10]), 34.7 nM; on L-type calcium channel (setting [11]) it was 275000 nM.

Consider `CCC1=C(C(=O)OCCC#N)C(c2ccc([N+](=O)[O-])cc2)C(C(=O)NCCCN2CCC(c3ccccc3)CC2)=C(COC)N1` (stereo not drawn) [Example 221, 5-(2-Cyanoethoxy) carbonyl-6-ethyl-1,4-dihydro-2-methyloxymethyl-4-(4-nitro)phenyl-3-(N-(3-(4-phenylpiperidin-1-yl)propyl))carboxamidopyridine], for which the melting point was 55 to 63 °C. Also, in series [1] (setting [8]), the Ki is 186 nM. Also, in series [2] (setting [9]), the Ki is 52.5 nM. Also, in series [3] (setting [10]), the Ki was 6.17 nM. The Ki on L-type calcium channel (setting [11]) was 14100 nM.

As to `COC(=O)C1=C(C)NC(C)=C(C(=O)OCCCN(C)C)C1c1ccc([N+](=O)[O-])cc1.Cl` (stereo not drawn) [Example 44, 1,4-Dihydro-5-methoxycarbonyl-2,6-dimethyl-3-{3-[(N,N-dimethyl)amino]propoxy}carbonyl-4-(4-nitrophenyl) pyridine hydrochloride], the melting point lay within 120 to 121 °C. Besides, the Ki in series [1] (setting [4]) is 5890 nM. Also, the Ki in series [2] (setting [5]) was 8320 nM. Besides, the Ki in series [3] (setting [6]) was 1700 nM. Besides, the Ki on L-type calcium channel (setting [7]) is 16600 nM.

As for `CC1=C(C(N)=O)C(c2ccc([N+](=O)[O-])cc2)C(C(=O)NCCCN2CCC(c3ccccc3)CC2)=C(COCCN=[N+]=[N-])N1` (stereo not drawn) [Example 216, 2-((Azidoethyl)oxy)methyl-5-carboxamido-1,4-dihydro-6-methyl-4-(4-nitro)phenyl-3-(N-(3-(4-phenylpiperidin-1-yl)propyl))carboxamidopyridine], the Ki in series [1] (setting [8]) was 60.3 nM; in series [2] (setting [9]), 7.08 nM; in series [3] (setting [10]), 1.7 nM; at L-type calcium channel (setting [11]), 1000 nM.

Regarding `CNC(=O)C1=C(C)NC(C)=C(C(=O)NCCCN2CCC(C(=O)OC)(c3ccccc3)CC2)C1c1ccc([N+](=O)[O-])cc1` (stereo not drawn) [Example 187, 1,4-Dihydro-2,6-dimethyl-3-{N-[3-(4-methoxycarbonyl-4-phenylpiperidin-1-yl)propyl]}carboxamido-5-(N-methyl) carboxamido-4-(4nitrophenyl)pyridine], the melting point is 122 to 123 °C. Besides, the Ki at L-type calcium channel (PKi Ca, [3H]nitrendipine, rat cardiac muscle membranes, mean) was 513000 nM.

On to `CCC1=C(C(=O)NC)C(c2ccc([N+](=O)[O-])cc2)C(C(=O)NCCCN2CCC(c3ccccc3)(c3ccccc3)CC2)=C(COCCN=[N+]=[N-])N1` (stereo not drawn) [Example 224, 2-((2-Azidoethyl)oxy)methyl-6-ethyl-1,4-dihydro-5-N-methylcarboxamido-4-(4-nitro)phenyl-3-(N-(3-(4,4-diphenylpiperidin-1-yl)propyl))carboxamidopyridine], for which the Ki in series [1] (PKi alpha-1 1a, [3H]prazosin, cloned human receptor, LM(tk-) cell membranes, mean) is 661 nM; in series [2] (PKi alpha-1 1b, cloned human receptor, LM(tk-) cell membranes, mean) it was 263 nM; in series [3] (PKi alpha-1 1c, cloned human receptor, LM(tk-) cell membranes, mean), 6.92 nM; on L-type calcium channel (setting [11]) it was 15100 nM.

For the origin of these results see patent publication US6608086B2, “Dihydropyridines and new uses thereof” (Synaptic Pharmaceutical Corporation, priority 1993, dated 2003).
